The source of these data is patent publication US5010076A, “1,7-fused 1H-indole-2-carboxylic acid-N-(1,4-benzodiazepin-3-yl)amides” (Kali-Chemie Pharma GmbH, priority 1989, dated 1991).

Series [1] can be described thus: determination of the minimum toxic dose. Format: in vivo, mouse (male). The note with it: mouse. The method, then: Male mice weighing 20-25 g were given maximum oral doses of 300 mg/kg of the test substance. The animals were observed carefully for three hours for symptoms of toxicity. In addition, all symptoms and deaths were recorded for a period of 24 hours after administration. Concomitant symptoms were likewise observed and recorded. If death or serious symptoms of toxicity were observed, further mice were given increasingly lower doses. The lowest dose which caused death or serious symptoms of toxicity is indicated in the following Table A as the minimum toxic dose.

The target of series [2] is T1, peripheral CCK receptors (pancreas) (Rattus norvegicus, UniProt P30551).
T1 construct: Whole pancreas glands from male Wistar rats with a body weight of 150-300 g; from tissue; host or cells: whole pancreas glands of male Wistar rats, washed homogenate
T1 sequence (P30551 1-444): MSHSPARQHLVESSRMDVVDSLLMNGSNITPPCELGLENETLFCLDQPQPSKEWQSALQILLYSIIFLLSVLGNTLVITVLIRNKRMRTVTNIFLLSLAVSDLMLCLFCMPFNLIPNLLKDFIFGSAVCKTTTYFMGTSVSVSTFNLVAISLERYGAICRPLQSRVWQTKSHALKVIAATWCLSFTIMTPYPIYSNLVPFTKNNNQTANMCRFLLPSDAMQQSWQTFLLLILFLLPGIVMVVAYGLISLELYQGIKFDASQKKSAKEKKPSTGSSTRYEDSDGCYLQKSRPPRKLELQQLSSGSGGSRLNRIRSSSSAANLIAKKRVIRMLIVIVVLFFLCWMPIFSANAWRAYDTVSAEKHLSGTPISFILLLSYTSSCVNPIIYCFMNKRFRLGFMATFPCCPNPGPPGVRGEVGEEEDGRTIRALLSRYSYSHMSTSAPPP
Put plainly: peripheral CCK receptor binding affinity on rat pancreas homogenate (inhibition of 3[H]-CCK-8 binding). To be noted: 0.3 nM 3[H]-CCK-8, 90 min, 25° C., pH 7.4, calculated from IC50 by Cheng-Prusoff; for Ki: read-out: In vitro binding to peripheral CCK receptors (pancreas) pKi values (converted). Further details: species or system rat (male Wistar). The method, then:
The affinity of the compounds of formula I for peripheral CCK receptors was measured in vitro on rat pancreas homogenate. The inhibition of the binding of the physiologically relevant octopeptide CCK-8 to peripheral CCK receptors by the test substances was determined.
The receptor binding studies were carried out by a modification of the method of van Dijk et al. (J. Neuroscience 4 (1984), 1021-1033), using soya bean trypsin inhibitor (=SBTI) as protease inhibitor. ^3 [H]-CCK-8, code TRK 775, from Amersham Int., having a specific activity of 60-90 Ci/mmol, was used as tritium-labelled CCK-8.
Whole pancreas glands from male Wistar rats with a body weight of 150-300 g, which had been sacrificed by decapitation, were freed of fatty tissue and homogenized for 15 seconds in a 50-fold volume of an ice-cold test buffer solution (10 mmol 2-[4-(2-hydroxyethyl)-piperazin-1-yl]-ethanesulfonic acid (=HEPES), 130 mmol sodium chloride, 5 mmol magnesium chloride, 0.02% bacitracins, 0.01% SBTI, pH 7.4) with a Kinematica Polytron type homogenizer. The homogenates were then centrifuged at 48,000 g for 10 minutes. This washing method was repeated. After the last centrifugation, the residue which was obtained each time in the form of a pellet was suspended in a 550-fold volume of the test buffer solution and immediately used for the measurement.
For the binding test, 500 μl of the tissue homogenate were incubated with 50 μl of test buffer solution or 50 μl of a solution of the compound to be investigated and with 50 μl of a ^3 [H]-CCK-8 solution (final concentration 0.3 nM). The non-specific binding was assumed to be 0.1 μmol CCK-8. The incubation lasted 90 minutes at 25° C. All the compounds were measured 3 times at each of several concentrations.
Aqueous solutions were employed as test substance solutions and were prepared by appropriate dilution of 60×10^-4 molar aqueous stock solutions. Test substances which are sparingly soluble in water were first dissolved in 96% ethanol, and this solution was diluted with sufficient water for the ethanol concentration not to exceed 1.6% by volume in the solution to be tested.
Bound and free ^3 [H]-CCK-8 were separated by filtration through glass fiber filters. The filters were washed twice with 3 ml of HEPES solution each time and then placed in the scintillation solution (SAVE scintillation solution from Packard) in the dark overnight and counted in a Packard TriCarb 1500™liquid scintillation counter. The IC50 of the respective test substance was determined to be that concentration which caused a 50% inhibition of the specific binding of tritiated CCK-8 to the receptors. From this, the corresponding pKi value was calculated using the Cheng-Prusoff equation. […]

Series [3] relates to CCK-induced disturbance of stomach emptying. Put plainly: effect of test substances on CCK-induced disturbances of emptying of the stomach (charcoal transport into duodenum). Format: in vivo, mouse (female NMRI). The method, then:
Doses of CCK lead to substantial blockade of the transpyloric transport of chyme from the stomach into the duodenum. The ability of the test substances to eliminate this blocking effect of CCK was investigated.
Female NMRI mice having body weights of 20-25 g were used in groups of ten animals each. […] A control group received only the Tylose® solution or the solution containing the solubilizer polyethylene glycol in each case. 60 minutes later the animals were given a subcutaneous injection of 80 Ig/kg CCK-8. After a further 5 minutes the animals were each orally administered 0.3 ml of a charcoal suspension (5% charcoal in 2% strength Tylose solution). The mice were sacrificed 5 minutes later and subsequently dissected. They were examined to find whether charcoal suspension had advanced into the duodenum.
The percentage of animals in which the CCK effect was eliminated and charcoal suspension was found in the duodenum after administration of the test substances was determined.

Series [4] has as its system CCK-induced gallbladder emptying. Put plainly: inhibitory effect of test substances on CCK-induced gallbladder emptying (gallbladder weight). Format: in vivo, mouse (female NMRI). How it is done:
CCK causes a contraction of the muscles of the gallbladder and thus an emptying of the gallbladder. […] Intraperitoneal doses of 0.1 μg/kg CCK-8 may result in the weight of the gallbladders decreasing to about 1/10 of the original weight.
Female NMRI mice having a body weights of 20-25 g were used in groups of 10 animals each. After withdrawal of feed for 24 hours (drinking water ad libitum) the animals received an oral dose of the test substance suspended in a volume of 10 ml/kg of body weight of a 1% strength Tylose® solution (=methylcellulose) or in a volume of 10 ml/kg of body weight of a solubilizer solution which contained 5% glycerol, 87% polyethylene glycol 400, and 8% water. Two control groups each received only the Tylose® solution or the solution containing the solubilizer polyethylene glycol. One of the control groups and all the animals treated with test substance received 0.1 Ig/kg CCK-8 injected i.p. 60 minutes later.
The mice were sacrificed 5 minutes after the CCK-8 administration, and the gallbladders were excised and weighed.
The following Table C lists the percentage inhibition of the CCK-8 effect on gallbladder weights caused by the test substances.

Setting [5] is: oral, lowest dose causing death or serious symptoms of toxicity, max 300 mg/kg, 24 h.
The mark [6] stands for this setting: dose 10 μmol/kg mouse oral, CCK-8 s.c. 60 min later.
[7] abbreviates: dose 1.0 μmol/kg mouse oral, CCK-8 s.c. 60 min later.
Where [8] appears, read: dose 1.0* μmol/kg mouse oral, * = administered in solution containing solubilizer (PEG 400).

No end group written: not given here. Bounds are passed on as bounds.

In series [1] (setting [5]), `CN1C(=O)C(NC(=O)c2cc3cc(F)cc4c3n2CCC4)N=C(c2ccccc2)c2ccccc21` (stereo not shown) [Example 5, 3-[(8-fluoro-4H-pyrrolo[3,2,1-ij]-5,6-dihydroquinoline-2-carbonyl)-amino]-2-oxo-1-methyl-5-phenyl-1H-2,3-dihydro-1,4-benzodiazepine] had a Minimum toxic dose greater than 300 mg/kg. The Ki in series [2] is 1.45 nM. In addition, the “% of Animals in which the CCK Effect was Eliminated” value (“% of Animals” below) in series [3] (setting [6]) turned out to be 75%.
For the molecule `CN1C(=O)C(NC(=O)c2cc3cccc4c3n2CCS4)N=C(c2ccccc2)c2ccccc21` (stereo not shown) [Example 38], the Ki in series [2] was 0.977 nM.
In the case of `Cc1ccc2c(c1)C(c1ccc(Cl)c(Cl)c1)=NC(NC(=O)c1cc3cccc4c3n1CCC4)C(=O)N2C` (stereo not shown) [Example 27], the “% of Animals” value in series [3] (setting [7]) was 40%.
`O=C(NC1N=C(c2ccccc2)c2ccccc2N(CC2CC2)C1=O)c1cc2cccc3c2n1CCC3` (stereo not shown) [Example 23]: the Minimum toxic dose in series [1] (setting [5]) is greater than 300 mg/kg. Besides, the Ki in series [2] was 10 nM.
The matching figures for `Cc1ccc2c(c1)C(c1ccccc1)=NC(NC(=O)c1cc3cccc4c3n1CCC4)C(=O)N2C` (stereo not shown) [Example 18]: greater than 300 mg/kg and 1.17 nM.
The matching figures for `CC(C)N1C(=O)C(NC(=O)c2cc3cccc4c3n2CCC4)N=C(c2ccccc2)c2ccccc21` (stereo not shown) [Example 25]: greater than 300 mg/kg and 24 nM.
Take `CN1C(=O)C(NC(=O)c2cc3cccc4c3n2CCC4)N=C(c2ccccc2)c2ccccc21` (stereo not shown) [Example 6, 3-[(4H-Pyrrolo[3,2,1-ij]-5,6-dihydroquinoline-2-carbonyl)-amino]-1-methyl-2-oxo-5-phenyl-1H-2,3-dihydro-1,4-benzodiazepine]: the “% Inhibition of CCK-induced Gallbladder Emptying” value in series [4] (dose 10 μmol/kg mouse oral, CCK-8 i.p. 60 min later) turned out to be 73%. Further, the Ki in series [2] was 3.24 nM. For the same molecule, in series [3] (dose 0.681 μmol/kg mouse oral, CCK-8 s.c. 60 min later), the “% of Animals” value was determined as 40%.
Molecule `CN1C(=O)C(NC(=O)c2cc3cccc4c3n2CCC4)N=C(C2CCCCC2)c2ccccc21` (stereo not shown) [Example 4, 3-[(4H-pyrrolo[3,2,1-ij]-5,6-dihydroquinoline-2-carbonyl)-amino]-1-methyl-2-oxo-5-cyclohexyl-1H-2,3-dihydro-1,4-benzodiazepine] gave a Minimum toxic dose in series [1] (in vivo, 1440 min) greater than 300 mg/kg. The Ki in series [2] was 2.51 nM. Besides, the “% of Animals” value in series [3] (setting [7]) is recorded as 45%.
Molecule `Cc1ccc(C2=NC(NC(=O)c3cc4cccc5c4n3CCC5)C(=O)N(C)c3ccccc32)cc1` (stereo not shown) [Example 30] displayed a Minimum toxic dose in series [1] (setting [5]) of 300 mg/kg. In addition, the Ki in series [2] is 2.34 nM.
Regarding “CCK-8: the octapeptide CCK-8 is the smallest unit with the complete spectrum of CCK effects (DYMGWMDF; ends and bridges not checked; UniProt P06307 96-103, looked up) [reference compound]”, in series [4] (intraperitoneal 0.1 μg/kg CCK-8), the “weight of the gallbladders decreasing to fraction of the original weight” value was “about 1/10”. Besides, the “animals with traces of charcoal suspension in the duodenum” value in series [3] (control animals which received a dose of CCK (80 Ig/kg CCK-8 subcutaneous), no test substance) is given as “not more than 5%”.
Molecule `CN1C(=O)C(NC(=O)c2cc3cccc4c3n2CCC4)N=C(c2ccc(F)cc2F)c2ccccc21` (stereo not shown) [Example 11] came in with a Minimum toxic dose in series [1] (setting [5]) of 300 mg/kg. In addition, the Ki in series [2] was 2.4 nM.
As to `CN1C(=O)C(NC(=O)c2cc3cccc4c3n2CCO4)N=C(c2ccccc2)c2ccccc21` (stereo not shown) [Example 37], in series [2], the Ki is 0.646 nM.
In the case of `Cc1ccc2c(c1)C(c1ccccc1F)=NC(NC(=O)c1cc3cccc4c3n1CCC4)C(=O)N2C` (stereo not shown) [Example 10], the Minimum toxic dose in series [1] (setting [5]) is reported as 300 mg/kg. For the same molecule, the “In vitro binding to peripheral CCK receptors (pancreas) pKi values” in series [2] was 8.75. For the same molecule, in series [3] (dose 0.1 μmol/kg mouse oral, CCK-8 s.c. 60 min later), the “% of Animals” value is reported as 40%.
Consider `CN1C(=O)C(NC(=O)c2cc3cc(F)cc4c3n2CCC4)N=C(c2ccccc2)c2cc(Cl)ccc21` (stereo not shown) [Example 26], for which the Ki in series [2] was 6.17 nM.
In series [1] (setting [5]), `CN1C(=O)C(NC(=O)c2cc3cccc4c3n2CCC4)N=C(c2ccccc2F)c2ccccc21` (stereo not shown) [Example 22] gave a Minimum toxic dose greater than 300 mg/kg. Further, in series [2], the Ki is 0.912 nM.
Regarding `COc1ccc2c(c1)N(C)C(=O)C(NC(=O)c1cc3cccc4c3n1CCC4)N=C2c1c(F)cccc1OCCC(C)C` (stereo not shown) [Example 17], the Ki in series [2] is 10 nM. In addition, in series [3] (setting [8]), the “% of Animals” value is on record as 50%.
`COc1ccc2c(c1)N(C)C(=O)C(NC(=O)c1cc3cccc4c3n1CCC4)N=C2c1c(F)cccc1F` (stereo not shown) [Example 13] displayed a Minimum toxic dose in series [1] (setting [5]) greater than 300 mg/kg. Besides, the Ki in series [2] is 1 nM. For the same molecule, the “% of Animals” value in series [3] (setting [6]) was found to be 83%; in series [3] (setting [8]), 100%.
As to `Cc1ccc2c(c1)C(c1cccs1)=NC(NC(=O)c1cc3cccc4c3n1CCC4)C(=O)N2C` (stereo not shown) [Example 8, 3-[(4H-Pyrrolo[3,2,1-ij]-5,6-dihydroquinoline-2-carbonyl)-amino]-1,7-dimethyl-2-oxo-5-(2-thienyl)-1H-2,3-dihydro-1,4-benzodiazepine], the Ki in series [2] is 9.12 nM.
